# Values of other authors, collected in patent US20240315962A1, “EXTENDED RELEASE COMPOSITIONS COMPRISING PYRIDOSTIGMINE” (priority 2020, published 2024).
smiles,measurement,setting,value
CN(C)C(=O)Oc1ccc[n+](C)c1 [pyridostigmine],bioavailability,NDA #020414,10-20%
same,elimination half-life,oral,3 to 5 h
same,time-to-maximum peak plasma concentration,oral,1 to 2 h
